The test has as its system Northern house mosquitoes (Culex pipiens). As to the kind of experiment: Long-term spatial repellency, static air repellency chamber, filter papers air-dried 5 hours. The following applies: Culex pipiens, 1 mL of 0.5% solution in acetone, air-dried 5 hours. It is filed as in vivo. The method, boiled down:
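Adult female Culex pipiens, 5–7 days post-emergence, held at 27 °C, 80% RH and 16:8 light:dark, about 20 per replicate in a 9 × 60 cm glass static-air chamber. Filter paper treated with 0.5% compound in acetone and air-dried 5 h is placed at one end; acetone-only papers are the control. Percentage spatial repellency is scored from mosquito distribution at 15–150 min, 4 replicates.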

Like-named read-outs stand apart in the source and are kept apart here.

For the compound `CC(C)=CCCC(C)CC(=O)OCC(C)O` (stereo not drawn) [Compound 2144, 2-hydroxypropyl citronellate], the pest or weed control at 0.5 % is, setting by setting: (0.25 h, 15 min, read-out: Long-term Percentage repellency 15 min) 12.5%; (1.5 h, 90 min, read-out: Long-term Percentage repellency 90 min) 20%; (2.5 h, 150 min, read-out: Long-term Percentage repellency 150 min) 35%.

The record behind these values is patent US11485701B2, “Insect repellent compounds and compositions, and methods thereof” (Iowa State University Research Foundation, Inc., priority 2016, dated 2022).
